According to US20260364030A1, “NOVEL SELECTIVE INHIBITORS OF LYSYL OXIDASES” (Syntara Limited, priority 2022, published 2026):

Columns and labels:
LOX = conditions: CIA rats; cited from earlier work
[1] = human patients with scleroderma; cited from earlier work
Human recombinant LOXL4 = Human recombinant LOXL4 (Homo sapiens, UniProt Q96JB6); assay: LOXL4 inhibition, Amplex Red oxidation assay; format: biochemical; conditions: 30 min incubation with enzyme at 37 °C
Description: LOX and LOXL protein family members can be acquired as recombinant active proteins from commercial sources, or extracted from animal tissues like bovine aorta, tendons, pig skin; or prepared from cell cultures. The inhibitory effects of the compounds of the present invention were tested against the given LOX or LOXL preparation using a method based on the detection of hydrogen peroxide with an Amplex Red oxidation assay [Zhou et al, 1997]. The assay was developed using either 384 or 96 well format. Briefly, in a standard black, clear bottom 384 well plate assay 25 µL of a dilution of any of the isoenzymes and orthologues in 1.2 M urea, 50 mM sodium borate buffer (pH 8.2) were added into each well in the presence of […] and 0.5 mM pargyline (to inhibit SSAO and MAO-B and MAO-A, respectively; not necessary if the enzyme is from a recombinant or purified form). Test compounds were dissolved in DMSO and tested in a Concentration Response Curve (CRC) with 11 data points, typically in the micromolar or nanomolar range after incubation with the enzyme for 30 min at 37 °C. […] The fluorescence (RFU) was read every 2.5 min for 30 min at 37 °C, excitation 544 nm and emission 590 (Optima; BMG labtech). The slope/min of the kinetics for each well was calculated using MARS data analysis software (BMG labtech) and this value was used to deduce the IC50 value (Dotmatics). […]

ovarian cancer = ovarian cancer genetically engineered mouse models; cited from earlier work
desmoplastic tumour = conditions: mouse, in vivo; cited from earlier work
collagen cross-links = assay: Rodent injury model (full-thickness skin excision); format: in vivo, mice
Description: Mice received injury by excision of full-thickness skin (3 cm^2 on the flank of the mice). In the treatment groups, 4% Compound 1 solution was applied topically, once a day, starting from 24 hours post injury to 1 week post injury. Wounds were then left to heal for an additional week. Mice were euthanized at 4-6 weeks post injury and the tissue was analyzed for collagen content, hydroxyproline as a surrogate marker of collagen content, extracted cross-link biomarkers: HLNL, DHLNL (reduced forms of deH-HLNL and deH-DHLNL respectively), PYD and DPD, elastin content, and changes in gross morphology and histology (using polarised light microscopy, immunohistochemistry, standard staining markers and LCMSMS).

skin fibrosis = assay: Mouse model of sclerosis (bleomycin-induced skin fibrosis); format: in vivo, male C57BL/6 mouse; conditions: topical formulation, various concentrations, from day 3; histology after 21 days; FIG. 3, ****=P≤0.0001
Description: Subcutaneous bleomycin (0.1 U/kg) was administered every second day (for 21 days total) to male C57BL/6 to induce skin fibrosis as a model of sclerosis. The lesions were treated, from day 3, with either Vehicle or various concentrations of Compound 1 in a topical formulation. Histology was completed after 21 days.

[2] = 4% solution topically once a day, 24 hours to 1 week post injury, vs control (FIG. 4, *=P≤0.05)

Sequence of Human recombinant LOXL4 (Q96JB6 25-756): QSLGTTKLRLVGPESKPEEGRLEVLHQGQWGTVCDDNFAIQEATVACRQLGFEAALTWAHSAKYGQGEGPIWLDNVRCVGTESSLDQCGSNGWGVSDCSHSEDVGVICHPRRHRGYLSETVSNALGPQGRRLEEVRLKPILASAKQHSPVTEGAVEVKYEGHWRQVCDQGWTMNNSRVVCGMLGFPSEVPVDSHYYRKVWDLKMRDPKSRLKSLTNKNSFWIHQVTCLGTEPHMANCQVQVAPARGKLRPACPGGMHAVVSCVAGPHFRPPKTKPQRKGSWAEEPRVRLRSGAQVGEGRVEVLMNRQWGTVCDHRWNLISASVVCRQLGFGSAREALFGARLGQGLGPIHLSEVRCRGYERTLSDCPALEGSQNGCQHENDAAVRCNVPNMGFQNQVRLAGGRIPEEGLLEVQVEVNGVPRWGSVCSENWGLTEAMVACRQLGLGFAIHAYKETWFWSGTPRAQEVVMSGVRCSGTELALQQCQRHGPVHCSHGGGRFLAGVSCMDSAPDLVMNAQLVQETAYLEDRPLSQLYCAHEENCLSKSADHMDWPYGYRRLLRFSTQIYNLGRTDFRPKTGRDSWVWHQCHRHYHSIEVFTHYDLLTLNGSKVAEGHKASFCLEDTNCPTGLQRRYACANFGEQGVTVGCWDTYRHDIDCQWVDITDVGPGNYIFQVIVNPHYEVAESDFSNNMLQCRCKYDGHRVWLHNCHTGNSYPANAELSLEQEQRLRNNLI

SMILES	Effect on inflammation, synovial hyperplasia, angiogenesis, MMP-2 and MMP-9 expression (LOX)	Tolerability [1]	IC50 (Human recombinant LOXL4) [µM]	Survival and lung metastasis (ovarian cancer)	Metastatic load and survival (desmoplastic tumour)	Immature crosslinks (LCMS, normalized for protein content) (collagen cross-links; [2])	Mature crosslinks (LCMS, normalized for protein content) (collagen cross-links; [2])	Collagen cross-links (collagen cross-links; rodent injury model, FIG. 4 (*=P≤0.05))	Average collagen score (histology) (skin fibrosis)
N#CCCN [BAPN, β-aminopropionitrile, reference compound]	attenuate inflammation, synovial hyperplasia, angiogenesis and expression of MMP-2 and MMP-9	poorly tolerated	0.3	significantly increased survival and decreased lung metastasis	lower metastatic load and increased survival				
NC/C(=C\F)CS(=O)(=O)c1ccccc1 [Compound 1, (E)-3-fluoro-2-((phenylsulfonyl)methyl)prop-2-en-1-amine]			4.7			reduced	reduced	reduction in collagen cross-links	significant improvement in the average collagen score
